{"source": "paper PMC6120666", "about": "(The EMBO Journal, 2018)", "assay_in_all_cases": "Drug affinity chromatography with c-ponatinib and LC-MS/MS (ponatinib interactome)", "assay_type_in_all_cases": "binding", "key": {"[1]": {"target": "T1, proteins of U2OS cell lysate (Homo sapiens, UniProt P05556)", "T1 construct": "Proteins enriched by c-ponatinib from U2OS cell lysate; endogenous in cells; host or cells: U2OS cell lysate", "T1 sequence (P05556 21-798)": "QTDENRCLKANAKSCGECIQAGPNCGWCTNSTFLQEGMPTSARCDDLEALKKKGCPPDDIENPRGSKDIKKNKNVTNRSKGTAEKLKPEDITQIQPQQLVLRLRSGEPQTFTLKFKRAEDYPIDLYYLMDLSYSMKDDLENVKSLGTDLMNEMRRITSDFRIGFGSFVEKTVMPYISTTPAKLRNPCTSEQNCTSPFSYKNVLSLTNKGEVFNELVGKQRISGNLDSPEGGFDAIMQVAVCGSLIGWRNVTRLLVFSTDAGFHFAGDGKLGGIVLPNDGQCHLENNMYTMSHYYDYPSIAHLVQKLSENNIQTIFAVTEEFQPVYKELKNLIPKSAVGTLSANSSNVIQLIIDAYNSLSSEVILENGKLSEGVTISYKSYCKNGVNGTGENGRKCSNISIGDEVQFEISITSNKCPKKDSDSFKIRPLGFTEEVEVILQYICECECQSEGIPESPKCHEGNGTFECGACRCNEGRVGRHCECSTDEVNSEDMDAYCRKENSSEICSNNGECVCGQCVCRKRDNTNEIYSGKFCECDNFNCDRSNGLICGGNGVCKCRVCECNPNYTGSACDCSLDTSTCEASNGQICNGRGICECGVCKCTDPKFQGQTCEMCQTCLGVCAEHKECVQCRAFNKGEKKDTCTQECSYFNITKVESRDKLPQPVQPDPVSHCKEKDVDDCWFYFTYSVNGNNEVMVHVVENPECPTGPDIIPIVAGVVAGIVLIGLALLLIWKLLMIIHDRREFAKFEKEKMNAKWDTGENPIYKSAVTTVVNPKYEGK", "conditions": "ITGB1, Integrin beta-1", "outline": "(§1)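 Proteins were identified by nano-UPLC–MS/MS after elution with formic acid and trypsin digestion. They were captured from U2OS lysate (2 mg protein per pulldown, NP-40 buffer) on amine-coupled NHS beads during a 2 h incubation at 4 °C.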"}, "[2]": {"target": "T2, proteins of U2OS cell lysate (Homo sapiens, UniProt P07305)", "T2 construct": "Proteins enriched by c-ponatinib from U2OS cell lysate; endogenous in cells; host or cells: U2OS cell lysate", "T2 sequence (P07305 whole entry)": "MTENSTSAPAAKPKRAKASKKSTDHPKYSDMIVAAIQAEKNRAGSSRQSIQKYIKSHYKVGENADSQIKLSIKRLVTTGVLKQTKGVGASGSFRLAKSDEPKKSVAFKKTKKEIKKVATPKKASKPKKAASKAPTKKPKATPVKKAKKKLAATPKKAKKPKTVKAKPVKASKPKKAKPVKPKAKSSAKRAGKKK", "conditions": "H1F0, Histone H1.0", "outline": "as §1"}, "[3]": {"target": "T3, proteins of U2OS cell lysate (Homo sapiens, UniProt P09669)", "T3 construct": "Proteins enriched by c-ponatinib from U2OS cell lysate; endogenous in cells; host or cells: U2OS cell lysate", "T3 sequence (P09669 whole entry)": "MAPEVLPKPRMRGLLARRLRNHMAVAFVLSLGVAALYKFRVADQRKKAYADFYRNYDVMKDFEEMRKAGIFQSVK", "conditions": "COX6C, Cytochrome c oxidase subunit 6C", "outline": "as §1"}, "[4]": {"target": "T4, proteins of U2OS cell lysate (Homo sapiens, UniProt P11021)", "T4 construct": "Proteins enriched by c-ponatinib from U2OS cell lysate; endogenous in cells; host or cells: U2OS cell lysate", "conditions": "HSPA5, 78 kDa glucose-regulated protein", "outline": "as §1"}, "[5]": {"target": "T5, proteins of U2OS cell lysate (Homo sapiens, UniProt P13861)", "T5 construct": "Proteins enriched by c-ponatinib from U2OS cell lysate; endogenous in cells; host or cells: U2OS cell lysate", "T5 sequence (P13861 whole entry)": "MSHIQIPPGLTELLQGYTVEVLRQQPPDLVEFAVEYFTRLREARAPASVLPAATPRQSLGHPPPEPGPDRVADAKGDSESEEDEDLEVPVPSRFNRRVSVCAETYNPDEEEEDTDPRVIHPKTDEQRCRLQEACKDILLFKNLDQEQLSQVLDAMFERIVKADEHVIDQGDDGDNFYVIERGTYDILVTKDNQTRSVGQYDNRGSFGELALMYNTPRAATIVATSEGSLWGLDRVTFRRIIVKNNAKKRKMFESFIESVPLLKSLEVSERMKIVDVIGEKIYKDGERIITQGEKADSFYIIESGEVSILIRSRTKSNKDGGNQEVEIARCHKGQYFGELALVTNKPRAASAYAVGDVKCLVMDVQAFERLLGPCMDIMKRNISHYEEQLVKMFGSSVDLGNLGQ", "conditions": "PRKAR2A, cAMP-dependent protein kinase type II-alpha regulatory subunit", "outline": "as §1"}, "[6]": {"target": "T6, proteins of U2OS cell lysate (Homo sapiens, UniProt P16615)", "T6 construct": "Proteins enriched by c-ponatinib from U2OS cell lysate; endogenous in cells; host or cells: U2OS cell lysate", "conditions": "ATP2A2, Sarcoplasmic/endoplasmic reticulum calcium ATPase 2", "outline": "as §1"}, "[7]": {"target": "T7, proteins of U2OS cell lysate (Homo sapiens, UniProt P27707)", "T7 construct": "Proteins enriched by c-ponatinib from U2OS cell lysate; endogenous in cells; host or cells: U2OS cell lysate", "T7 sequence (P27707 whole entry)": "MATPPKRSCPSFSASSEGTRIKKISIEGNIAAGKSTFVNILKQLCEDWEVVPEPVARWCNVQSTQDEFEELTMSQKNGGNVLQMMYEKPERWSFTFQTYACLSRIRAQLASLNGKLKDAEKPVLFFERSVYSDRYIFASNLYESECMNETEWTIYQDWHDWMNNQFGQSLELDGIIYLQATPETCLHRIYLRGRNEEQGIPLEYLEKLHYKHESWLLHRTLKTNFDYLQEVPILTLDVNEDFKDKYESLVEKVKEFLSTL", "conditions": "DCK, Deoxycytidine kinase", "outline": "as §1"}, "[8]": {"target": "T8, proteins of U2OS cell lysate (Homo sapiens, UniProt P46783)", "T8 construct": "Proteins enriched by c-ponatinib from U2OS cell lysate; endogenous in cells; host or cells: U2OS cell lysate", "conditions": "RPS10;RPS10P5, 40S ribosomal protein S10", "outline": "as §1"}, "[9]": {"target": "T9, proteins of U2OS cell lysate (Homo sapiens, UniProt P49773)", "T9 construct": "Proteins enriched by c-ponatinib from U2OS cell lysate; endogenous in cells; host or cells: U2OS cell lysate", "T9 sequence (P49773 whole entry)": "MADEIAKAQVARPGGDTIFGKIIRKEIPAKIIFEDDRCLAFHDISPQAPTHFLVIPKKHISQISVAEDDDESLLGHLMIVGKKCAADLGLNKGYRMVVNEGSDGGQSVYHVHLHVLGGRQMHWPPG", "conditions": "HINT1, Histidine triad nucleotide-binding protein 1", "outline": "as §1"}, "[10]": {"target": "T10, proteins of U2OS cell lysate (Homo sapiens, UniProt P51617)", "T10 construct": "Proteins enriched by c-ponatinib from U2OS cell lysate; endogenous in cells; host or cells: U2OS cell lysate", "T10 sequence (P51617 whole entry)": "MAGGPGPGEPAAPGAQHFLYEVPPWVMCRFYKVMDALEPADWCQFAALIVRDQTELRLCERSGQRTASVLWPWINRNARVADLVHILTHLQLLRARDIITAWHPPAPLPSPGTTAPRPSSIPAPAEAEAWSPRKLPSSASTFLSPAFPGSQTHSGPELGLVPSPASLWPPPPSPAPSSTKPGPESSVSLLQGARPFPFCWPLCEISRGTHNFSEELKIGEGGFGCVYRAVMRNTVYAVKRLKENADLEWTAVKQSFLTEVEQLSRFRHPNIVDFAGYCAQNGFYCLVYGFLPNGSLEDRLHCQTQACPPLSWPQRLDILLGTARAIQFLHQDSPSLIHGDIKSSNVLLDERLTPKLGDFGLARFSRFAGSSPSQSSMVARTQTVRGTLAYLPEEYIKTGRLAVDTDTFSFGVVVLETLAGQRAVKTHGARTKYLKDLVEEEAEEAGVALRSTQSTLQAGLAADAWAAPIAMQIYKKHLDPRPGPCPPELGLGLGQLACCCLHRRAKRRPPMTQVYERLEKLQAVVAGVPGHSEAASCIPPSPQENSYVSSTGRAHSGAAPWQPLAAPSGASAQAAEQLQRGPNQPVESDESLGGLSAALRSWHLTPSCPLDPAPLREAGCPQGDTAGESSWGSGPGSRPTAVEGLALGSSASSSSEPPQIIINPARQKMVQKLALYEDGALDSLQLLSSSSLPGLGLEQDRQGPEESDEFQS", "conditions": "IRAK1, Interleukin-1 receptor-associated kinase 1", "outline": "as §1"}, "[11]": {"target": "T11, proteins of U2OS cell lysate (Homo sapiens, UniProt P55036)", "T11 construct": "Proteins enriched by c-ponatinib from U2OS cell lysate; endogenous in cells; host or cells: U2OS cell lysate", "T11 sequence (P55036 whole entry)": "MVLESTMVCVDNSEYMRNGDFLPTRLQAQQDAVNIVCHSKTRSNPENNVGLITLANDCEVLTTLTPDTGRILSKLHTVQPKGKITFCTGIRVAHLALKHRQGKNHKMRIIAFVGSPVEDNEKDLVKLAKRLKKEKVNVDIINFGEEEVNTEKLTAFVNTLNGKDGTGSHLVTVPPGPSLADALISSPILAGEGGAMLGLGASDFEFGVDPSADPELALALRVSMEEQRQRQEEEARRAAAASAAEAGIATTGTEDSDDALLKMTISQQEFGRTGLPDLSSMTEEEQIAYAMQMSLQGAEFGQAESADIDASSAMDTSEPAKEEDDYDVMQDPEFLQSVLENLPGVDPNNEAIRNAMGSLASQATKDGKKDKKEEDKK", "conditions": "PSMD4, 26S proteasome non-ATPase regulatory subunit 4", "outline": "as §1"}, "[12]": {"target": "T12, proteins of U2OS cell lysate (Homo sapiens, UniProt P62249)", "T12 construct": "Proteins enriched by c-ponatinib from U2OS cell lysate; endogenous in cells; host or cells: U2OS cell lysate", "conditions": "RPS16, 40S ribosomal protein S16", "outline": "as §1"}, "[13]": {"target": "T13, proteins of U2OS cell lysate (Homo sapiens, UniProt P62269)", "T13 construct": "Proteins enriched by c-ponatinib from U2OS cell lysate; endogenous in cells; host or cells: U2OS cell lysate", "conditions": "RPS18, 40S ribosomal protein S18", "outline": "as §1"}, "[14]": {"target": "T14, proteins of U2OS cell lysate (Homo sapiens, UniProt P68363)", "T14 construct": "Proteins enriched by c-ponatinib from U2OS cell lysate; endogenous in cells; host or cells: U2OS cell lysate", "conditions": "TUBA1B;TUBA1A, Tubulin alpha-1B chain", "outline": "as §1"}, "[15]": {"target": "T15, proteins of U2OS cell lysate (Homo sapiens, UniProt Q00536)", "T15 construct": "Proteins enriched by c-ponatinib from U2OS cell lysate; endogenous in cells; host or cells: U2OS cell lysate", "T15 sequence (Q00536 whole entry)": "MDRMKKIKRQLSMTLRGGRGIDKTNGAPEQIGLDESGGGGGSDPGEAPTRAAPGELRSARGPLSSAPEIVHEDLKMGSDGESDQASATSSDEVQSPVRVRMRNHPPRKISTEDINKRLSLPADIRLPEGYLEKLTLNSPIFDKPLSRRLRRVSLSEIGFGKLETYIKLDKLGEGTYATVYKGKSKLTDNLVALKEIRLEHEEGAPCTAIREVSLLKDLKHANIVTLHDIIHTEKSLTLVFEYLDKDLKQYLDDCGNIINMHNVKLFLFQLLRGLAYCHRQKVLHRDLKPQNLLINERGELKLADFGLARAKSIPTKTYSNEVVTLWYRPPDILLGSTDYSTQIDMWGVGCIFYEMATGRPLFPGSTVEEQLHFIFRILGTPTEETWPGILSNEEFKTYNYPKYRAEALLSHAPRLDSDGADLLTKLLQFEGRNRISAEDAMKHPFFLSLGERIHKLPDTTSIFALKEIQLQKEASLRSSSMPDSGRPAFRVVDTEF", "conditions": "CDK16, Cyclin-dependent kinase 16", "outline": "as §1"}, "[16]": {"target": "T16, proteins of U2OS cell lysate (Homo sapiens, UniProt Q12851)", "T16 construct": "Proteins enriched by c-ponatinib from U2OS cell lysate; endogenous in cells; host or cells: U2OS cell lysate", "T16 sequence (Q12851 whole entry)": "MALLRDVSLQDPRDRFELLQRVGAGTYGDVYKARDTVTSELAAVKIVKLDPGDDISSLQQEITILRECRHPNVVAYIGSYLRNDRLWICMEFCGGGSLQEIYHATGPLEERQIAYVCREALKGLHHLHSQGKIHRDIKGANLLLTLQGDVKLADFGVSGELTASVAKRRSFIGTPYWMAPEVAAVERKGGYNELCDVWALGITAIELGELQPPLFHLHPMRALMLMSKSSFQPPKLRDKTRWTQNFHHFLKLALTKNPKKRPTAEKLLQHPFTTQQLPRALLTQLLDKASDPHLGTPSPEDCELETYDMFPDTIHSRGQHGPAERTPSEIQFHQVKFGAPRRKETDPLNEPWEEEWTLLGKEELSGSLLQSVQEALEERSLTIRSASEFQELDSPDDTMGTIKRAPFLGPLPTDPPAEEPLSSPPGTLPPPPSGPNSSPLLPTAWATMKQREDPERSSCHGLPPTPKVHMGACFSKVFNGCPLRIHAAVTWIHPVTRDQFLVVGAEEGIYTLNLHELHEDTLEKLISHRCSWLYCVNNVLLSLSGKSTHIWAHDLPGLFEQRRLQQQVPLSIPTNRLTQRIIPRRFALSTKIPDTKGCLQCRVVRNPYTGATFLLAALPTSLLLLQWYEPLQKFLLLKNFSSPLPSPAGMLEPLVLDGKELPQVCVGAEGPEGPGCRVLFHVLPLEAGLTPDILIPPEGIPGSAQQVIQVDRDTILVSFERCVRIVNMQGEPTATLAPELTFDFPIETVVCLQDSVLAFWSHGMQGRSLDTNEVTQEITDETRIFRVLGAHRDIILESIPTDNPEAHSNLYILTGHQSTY", "conditions": "MAP4K2, Mitogen-activated protein kinase kinase kinase kinase 2", "outline": "as §1"}, "[17]": {"target": "T17, proteins of U2OS cell lysate (Homo sapiens, UniProt Q92973)", "T17 construct": "Proteins enriched by c-ponatinib from U2OS cell lysate; endogenous in cells; host or cells: U2OS cell lysate", "conditions": "TNPO1, Transportin-1", "outline": "as §1"}, "[18]": {"target": "T18, proteins of U2OS cell lysate (Homo sapiens, UniProt Q9NWB6)", "T18 construct": "Proteins enriched by c-ponatinib from U2OS cell lysate; endogenous in cells; host or cells: U2OS cell lysate", "T18 sequence (Q9NWB6 whole entry)": "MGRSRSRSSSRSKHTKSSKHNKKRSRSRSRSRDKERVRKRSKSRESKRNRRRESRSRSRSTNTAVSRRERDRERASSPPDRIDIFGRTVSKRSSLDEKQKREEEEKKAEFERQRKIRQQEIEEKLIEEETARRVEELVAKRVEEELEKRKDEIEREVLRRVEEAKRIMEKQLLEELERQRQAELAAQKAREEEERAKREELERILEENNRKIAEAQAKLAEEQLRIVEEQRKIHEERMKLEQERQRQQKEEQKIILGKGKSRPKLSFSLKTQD", "conditions": "ARGLU1, Arginine and glutamate-rich protein 1", "outline": "as §1"}, "[19]": {"target": "T19, proteins of U2OS cell lysate (Homo sapiens, UniProt Q9Y512)", "T19 construct": "Proteins enriched by c-ponatinib from U2OS cell lysate; endogenous in cells; host or cells: U2OS cell lysate", "conditions": "SAMM50, Sorting and assembly machinery component 50 homolog", "outline": "as §1"}}}
{"smiles": "Cc1ccc(C(=O)Nc2ccc(CN3CCN(C)CC3)c(C(F)(F)F)c2)cc1C#Cc1cnc2cccnn12", "note": "[PON]", "values": [{"measurement": "Average LFQ PON_WT", "setting": "[1]", "value": 20.3187}, {"measurement": "Average LFQ PON_WT", "setting": "[2]", "value": 21.4215}, {"measurement": "Average LFQ PON_WT", "setting": "[3]", "value": 20.8234}, {"measurement": "Average LFQ PON_WT", "setting": "[4]", "value": 23.5505}, {"measurement": "Average LFQ PON_WT", "setting": "[5]", "value": 19.7853}, {"measurement": "Average LFQ PON_WT", "setting": "[6]", "value": 20.9825}, {"measurement": "Average LFQ PON_WT", "setting": "[7]", "value": 29.7769}, {"measurement": "Average LFQ PON_WT", "setting": "[8]", "value": 21.6692}, {"measurement": "Average LFQ PON_WT", "setting": "[9]", "value": 21.3958}, {"measurement": "Average LFQ PON_WT", "setting": "[10]", "value": 23.3938}, {"measurement": "Average LFQ PON_WT", "setting": "[11]", "value": 21.0725}, {"measurement": "Average LFQ PON_WT", "setting": "[12]", "value": 20.8259}, {"measurement": "Average LFQ PON_WT", "setting": "[13]", "value": 21.0717}, {"measurement": "Average LFQ PON_WT", "setting": "[14]", "value": 27.3228}, {"measurement": "Average LFQ PON_WT", "setting": "[15]", "value": 24.4833}, {"measurement": "Average LFQ PON_WT", "setting": "[16]", "value": 27.1188}, {"measurement": "Average LFQ PON_WT", "setting": "[17]", "value": 24.7772}, {"measurement": "Average LFQ PON_WT", "setting": "[18]", "value": 21.1214}, {"measurement": "Average LFQ PON_WT", "setting": "[19]", "value": 20.9007}]}
